Reference: patent US20260207753A1, “PROTAC DEGRADATION OF FACTORS PAX3 AND FOXO1” (THE RESEARCH INSTITUTE AT NATIONWIDE CHILDREN'S HOSPITAL, priority 2022, published 2026)
“Also recorded” adds a separate entry of the source.

Columns and labels:
SMARCA4 and SMARCA2 = test: Western blot of soluble nuclear extracts: ATPase (SMARCA4/SMARCA2) degradation in RH4 / rhabdomyosarcoma cells; type: cell-based, human; settings: for PROTAC exposure time until ATPase depletion is observed: 125 nM SMARCA4-31 or 250 nM DL-dS2-4, FIG. 6B; for dose required for maximal ATPase depletion: FIG. 6A; for loss of ATPases SMARCA4/SMARCA2: rhabdomyosarcoma cells, 1 μM, 24-hour treatment, western blot
Method: (§1) The inventors investigated the effect of a number of PROTAC inhibitors on fusion-positive and negative RMS cell models. The experiment was designed as follows. Fusion-positive RMS (RH4 and RH30) and fusion-negative RMS (RD and CTR) cells were treated with DMSO or 1 μM dBRD9, DL-ds2-4, or SMARCA4-31 for 24 hours. Soluble nuclear extracts were prepared to assess target degradation as well as abundance of additional SWI/SNF complex subunits and the transcription factor FOXO1 (wild-type and PAX3-FOXO1 fusion).
(§2) The inventors also investigated whether the effect of the compounds was reversible. Fusion-positive RMS RH4 cells were treated for 24 hours with DMSO including […] dBRD9, DL-ds2-4, or SMARCA4-31. After the treatment period cells were collected or washed extensively to remove the compound and incubated in untreated growth media for an additional 24-hour period. Soluble nuclear extracts were prepared to assess target degradation and recovery.
(§3) In FIG. 6A, RH4 cells were treated for 24 hours with the indicated dose of SMARCA4-31 (labeled S4-31) or DL-dS2-4 (labeled S2-4).
(§4) In FIG. 6B, RH4 cells were treated with 125 nM SMARCA4-31 (labeled S4-31) or 250 nM DL-dS2-4 (labeled S2-4) for the indicated time.

PAX3-FOXO1 fusion = test: Western blot of soluble nuclear extracts: PAX3-FOXO1 fusion loss in RH4 cells; type: cell-based, human; settings: 24 hours; for loss of the PAX3-FOXO1 fusion: 1 μM; for PROTAC concentration at which PAX3-FOXO1 is fully depleted: FIG. 6A
Method: as §1, §2, §3, §4

FOXO1 = molecular target: T1, FOXO1 (Homo sapiens, UniProt Q12778); test: Western blot of soluble nuclear extracts: wild-type FOXO1 loss in CTR cells; type: cell-based; settings: 1 μM, 24 hours
T1 construct: In CTR cells, which only express the wild-type FOXO1; endogenous in cells; host or cells: CTR (SMS-CTR) cells
T1 sequence (Q12778 whole entry): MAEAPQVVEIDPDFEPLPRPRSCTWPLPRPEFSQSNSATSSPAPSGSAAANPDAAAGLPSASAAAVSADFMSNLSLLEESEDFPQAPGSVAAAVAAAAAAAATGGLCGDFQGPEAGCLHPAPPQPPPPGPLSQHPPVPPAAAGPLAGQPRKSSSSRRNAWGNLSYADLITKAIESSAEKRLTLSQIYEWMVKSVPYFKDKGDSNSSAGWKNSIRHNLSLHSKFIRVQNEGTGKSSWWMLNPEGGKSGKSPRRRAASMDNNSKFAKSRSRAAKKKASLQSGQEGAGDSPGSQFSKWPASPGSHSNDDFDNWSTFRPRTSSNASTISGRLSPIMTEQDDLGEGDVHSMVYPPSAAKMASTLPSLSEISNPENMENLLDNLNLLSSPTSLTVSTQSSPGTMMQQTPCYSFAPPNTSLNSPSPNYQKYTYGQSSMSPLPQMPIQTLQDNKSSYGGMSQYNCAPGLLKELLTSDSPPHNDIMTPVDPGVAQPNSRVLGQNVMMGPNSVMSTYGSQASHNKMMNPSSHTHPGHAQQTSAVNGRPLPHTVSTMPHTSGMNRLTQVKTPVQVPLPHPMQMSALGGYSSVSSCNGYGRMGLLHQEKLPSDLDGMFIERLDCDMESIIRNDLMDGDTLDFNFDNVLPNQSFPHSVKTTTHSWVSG
Method: as §1

SMARCC1 = test: Abundance of SWI/SNF subunit SMARCC1 in soluble nuclear extracts; type: cell-based; settings: 1 μM, 24 hours
Method: as §1

SMARCB1 = test: Abundance of SWI/SNF subunit SMARCB1 in soluble nuclear extracts; type: cell-based; settings: 1 μM, 24 hours
Method: as §1

PBRM1 = molecular target: T2, PBRM1 (Homo sapiens, UniProt Q86U86); test: Abundance of PBAF subunit PBRM1 in soluble nuclear extracts; type: cell-based; settings: 24 hours; for degradation of dedicated PBAF subunit PBRM1: 1 μM, soluble nuclear extracts
T2 construct: Soluble nuclear extracts were prepared to assess target degradation as well as abundance of additional SWI/SNF complex subunits; endogenous in cells; host or cells: RH4 (washout experiment) and other RMS cells
T2 sequence (Q86U86 whole entry): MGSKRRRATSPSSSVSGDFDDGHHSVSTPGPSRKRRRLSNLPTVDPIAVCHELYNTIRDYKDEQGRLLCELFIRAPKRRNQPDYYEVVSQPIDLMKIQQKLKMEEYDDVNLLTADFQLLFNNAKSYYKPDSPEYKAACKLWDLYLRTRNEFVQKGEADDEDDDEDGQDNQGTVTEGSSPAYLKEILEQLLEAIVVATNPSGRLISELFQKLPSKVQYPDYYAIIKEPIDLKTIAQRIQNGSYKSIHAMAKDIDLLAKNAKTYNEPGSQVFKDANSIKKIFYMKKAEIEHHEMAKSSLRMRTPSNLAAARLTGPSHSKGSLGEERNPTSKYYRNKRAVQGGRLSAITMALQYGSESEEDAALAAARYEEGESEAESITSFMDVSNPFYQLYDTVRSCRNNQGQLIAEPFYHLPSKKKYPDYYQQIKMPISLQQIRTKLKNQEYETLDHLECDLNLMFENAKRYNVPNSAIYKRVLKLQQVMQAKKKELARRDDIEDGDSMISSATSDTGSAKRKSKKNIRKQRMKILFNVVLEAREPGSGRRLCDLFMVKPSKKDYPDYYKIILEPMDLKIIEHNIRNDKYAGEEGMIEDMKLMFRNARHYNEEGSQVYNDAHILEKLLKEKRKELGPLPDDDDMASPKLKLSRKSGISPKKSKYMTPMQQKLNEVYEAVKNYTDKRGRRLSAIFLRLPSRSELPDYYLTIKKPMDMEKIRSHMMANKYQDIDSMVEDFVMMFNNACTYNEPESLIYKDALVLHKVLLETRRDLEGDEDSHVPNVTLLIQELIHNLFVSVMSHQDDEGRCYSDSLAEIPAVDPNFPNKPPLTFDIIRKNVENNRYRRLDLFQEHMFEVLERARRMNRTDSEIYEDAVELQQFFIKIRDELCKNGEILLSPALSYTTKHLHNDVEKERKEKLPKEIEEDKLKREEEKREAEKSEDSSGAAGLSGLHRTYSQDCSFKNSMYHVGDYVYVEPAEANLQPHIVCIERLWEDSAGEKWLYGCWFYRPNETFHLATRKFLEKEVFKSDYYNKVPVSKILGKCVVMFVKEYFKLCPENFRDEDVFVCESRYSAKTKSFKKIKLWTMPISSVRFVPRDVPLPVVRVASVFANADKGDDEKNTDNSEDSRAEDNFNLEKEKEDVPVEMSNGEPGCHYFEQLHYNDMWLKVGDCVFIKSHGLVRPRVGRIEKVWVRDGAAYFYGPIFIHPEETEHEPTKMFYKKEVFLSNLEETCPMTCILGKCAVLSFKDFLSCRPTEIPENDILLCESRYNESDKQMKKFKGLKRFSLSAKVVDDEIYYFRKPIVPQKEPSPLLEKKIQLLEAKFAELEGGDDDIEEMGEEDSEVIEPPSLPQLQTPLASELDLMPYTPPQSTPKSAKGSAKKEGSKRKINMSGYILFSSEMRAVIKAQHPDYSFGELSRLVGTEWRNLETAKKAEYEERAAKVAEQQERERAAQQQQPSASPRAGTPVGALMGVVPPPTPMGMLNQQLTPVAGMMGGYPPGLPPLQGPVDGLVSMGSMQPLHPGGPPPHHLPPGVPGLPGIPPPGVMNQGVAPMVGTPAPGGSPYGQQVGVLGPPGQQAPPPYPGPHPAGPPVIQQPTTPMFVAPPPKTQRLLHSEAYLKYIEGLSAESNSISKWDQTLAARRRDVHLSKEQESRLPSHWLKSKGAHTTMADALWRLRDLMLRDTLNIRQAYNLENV
Method: as §1, §2

DPF2 = test: Abundance of BAF subunit DPF2 in soluble nuclear extracts; type: cell-based; settings: 1 μM, 24 hours
Method: as §1

BRD9 = molecular target: T3, BRD9 (Homo sapiens, UniProt Q9H8M2); test: Abundance of GBAF subunit BRD9 in soluble nuclear extracts; type: cell-based; settings: 1 μM, 24 hours
T3 construct: Soluble nuclear extracts were prepared to assess target degradation as well as abundance of additional SWI/SNF complex subunits; endogenous in cells; host or cells: RH4, RH30, RD, CTR rhabdomyosarcoma cells
T3 sequence (Q9H8M2 1-597): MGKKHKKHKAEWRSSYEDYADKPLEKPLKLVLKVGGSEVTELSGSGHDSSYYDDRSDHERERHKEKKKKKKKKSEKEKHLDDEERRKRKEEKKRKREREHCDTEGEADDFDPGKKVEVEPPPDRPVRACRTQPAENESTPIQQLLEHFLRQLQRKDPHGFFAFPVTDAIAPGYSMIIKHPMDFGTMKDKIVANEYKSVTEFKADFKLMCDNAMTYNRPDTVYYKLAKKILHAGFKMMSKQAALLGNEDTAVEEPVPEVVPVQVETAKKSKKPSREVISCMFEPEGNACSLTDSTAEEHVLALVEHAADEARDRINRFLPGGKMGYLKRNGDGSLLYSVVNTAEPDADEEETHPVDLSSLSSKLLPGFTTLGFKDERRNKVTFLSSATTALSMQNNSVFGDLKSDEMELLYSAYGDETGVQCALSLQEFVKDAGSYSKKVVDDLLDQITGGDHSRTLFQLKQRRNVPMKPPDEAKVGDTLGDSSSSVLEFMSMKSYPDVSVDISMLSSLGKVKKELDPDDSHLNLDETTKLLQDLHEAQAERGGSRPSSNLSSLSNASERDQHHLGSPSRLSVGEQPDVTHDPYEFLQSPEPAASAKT
Method: as §1

MYOD1 = test: LC/MS of BAF-associated transcription factors in rhabdomyosarcoma cells: MYOD1; type: cell-based; settings: 1 μM, 24-hour treatment
From the text: (§5) In addition to PAX3-FOXO1, depleted core-regulatory transcription factors included MYOD1, an essential factor in rhabdomyosarcoma cell growth.

PAX3-FOXO1 = molecular target: T4, PAX3-FOXO1 (Homo sapiens, UniProt P23760); test: LC/MS of BAF-associated transcription factors in rhabdomyosarcoma cells: PAX3-FOXO1; type: cell-based; settings: 1 μM, 24-hour treatment
T4 construct: endogenous in cells
T4 sequence (P23760 with tags, fused parts or gaps limits assumed): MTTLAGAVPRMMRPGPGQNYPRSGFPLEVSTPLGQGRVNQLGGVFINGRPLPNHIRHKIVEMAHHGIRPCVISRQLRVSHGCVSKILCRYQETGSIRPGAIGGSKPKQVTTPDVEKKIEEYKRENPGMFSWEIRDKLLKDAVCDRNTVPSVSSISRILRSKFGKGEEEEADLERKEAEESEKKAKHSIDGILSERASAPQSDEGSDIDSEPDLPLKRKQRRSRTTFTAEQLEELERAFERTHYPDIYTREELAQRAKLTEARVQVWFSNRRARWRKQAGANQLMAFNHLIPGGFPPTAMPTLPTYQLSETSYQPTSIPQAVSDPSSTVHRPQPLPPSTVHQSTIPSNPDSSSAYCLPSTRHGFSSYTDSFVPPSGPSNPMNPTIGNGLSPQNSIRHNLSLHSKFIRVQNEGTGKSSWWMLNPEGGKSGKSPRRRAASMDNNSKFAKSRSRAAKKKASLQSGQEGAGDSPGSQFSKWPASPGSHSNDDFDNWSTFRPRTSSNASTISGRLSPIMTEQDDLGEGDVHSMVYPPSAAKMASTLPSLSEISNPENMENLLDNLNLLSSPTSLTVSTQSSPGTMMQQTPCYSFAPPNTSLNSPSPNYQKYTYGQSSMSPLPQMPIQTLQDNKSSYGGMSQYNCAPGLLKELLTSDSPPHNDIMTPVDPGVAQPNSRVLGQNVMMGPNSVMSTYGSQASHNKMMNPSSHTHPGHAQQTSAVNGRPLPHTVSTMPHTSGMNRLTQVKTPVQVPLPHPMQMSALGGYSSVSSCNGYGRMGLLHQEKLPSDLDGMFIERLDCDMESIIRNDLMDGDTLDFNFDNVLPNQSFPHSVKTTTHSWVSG
From the text: as §5

RH4 cells [1] = test: Incucyte cell proliferation, growth-curve AUC dose-response, RH4; type: cell-based, human; settings: RH4 (fusion-positive), 96-hour, AUC of growth curve, initial data, FIG. 7A
Method: (§6) In FIG. 7A, RH4 (a PAX3-FOXO1 fusion-positive rhabdomyosarcoma cell line) and SMS-CTR (a PAX3-FOXO1 fusion-negative rhabdomyosarcoma cell line) cells were treated with increasing concentrations of SMARCA4-31 or DL-dS2-4 for a 96-hour period, and cell proliferation was monitored on an Incucyte® system. […] We explored why RH4 and SMS-CTR cells display relatively high sensitivity to PROTAC treatment. The CRBN gene expresses the protein cereblon, a component of an E3 ubiquitin ligase complex. By analyzing CRBN gene expression using RNA-seq from the Cancer Cell Line Encyclopedia (CCLE) database, we show in FIG. 7B, that RH4 and SMS-CTR cells express high levels of CRBN compared to other rhabdomyosarcoma (RMS) cell lines.

SMS-CTR cells = test: Incucyte cell proliferation, growth-curve AUC dose-response, SMS-CTR; type: cell-based; settings: SMS-CTR (fusion-negative), 96-hour, AUC of growth curve, initial data, FIG. 7A
Method: as §6

RH4 cells [2] = test: Tn5 transposition library fragment length distribution (chromatin accessibility) in RH4 cells; type: cell-based, human; settings: 24 hours, with or without washout and 24-hour recovery, FIG. 5
Method: Finally, the inventors determined if the reversible disruption of the SWU/SNF complex results in altered chromatin accessibility. FP-RMS RH4 cells were treated for 24 hours with DMSO or SMARCA4-31. A third group was treated with SMARCA4-31 for 24 hours before washout, and a 24-hour recovery period. 50.000 cells were used. Tn5 transposition followed by Illumina library amplification (15 cycles). Libraries were run on Bioanalyzer to assess fragment length distribution.

| SMILES | PROTAC exposure time until ATPase depletion is observed (SMARCA4 and SMARCA2; RH4 cells) | extent of SMARCA4 degradation, reversibility experiment (SMARCA4 and SMARCA2; RH4 cells, 24 hours, 1 µM, FIG. 4) | dose required for maximal ATPase depletion (SMARCA4 and SMARCA2; RH4 cells, 24 hours) [nM] | loss of ATPases SMARCA4/SMARCA2 (SMARCA4 and SMARCA2) | loss of the PAX3-FOXO1 fusion (PAX3-FOXO1 fusion) | extent of PAX3-FOXO1 degradation, reversibility experiment (PAX3-FOXO1 fusion; 1 µM, FIG. 4) | PROTAC concentration at which PAX3-FOXO1 is fully depleted (PAX3-FOXO1 fusion) [nM] | loss of wild-type FOXO1 (FOXO1) | degradation of core SWI/SNF subunit SMARCC1 (SMARCC1) | abundance of core subunit SMARCB1 (SMARCB1) | degradation of dedicated PBAF subunit PBRM1 (PBRM1) | extent of PBRM1 degradation, reversibility experiment (PBRM1; RH4 cells, 1 µM, FIG. 4) | abundance of BAF subunit DPF2 (DPF2) | abundance of GBAF subunit BRD9 (BRD9) | MYOD1 depletion by LC/MS (MYOD1) | PAX3-FOXO1 depletion by LC/MS (PAX3-FOXO1) | efficacy in inhibiting cell growth (concentration range) (RH4 cells [1]) | efficacy in inhibiting cell growth (concentration range) (SMS-CTR cells) | chromatin accessibility (fragment length signatures) (RH4 cells [2]) |
| --- | --- | --- | --- | --- | --- | --- | --- | --- | --- | --- | --- | --- | --- | --- | --- | --- | --- | --- | --- |
| O=C1CCC(N2C(=O)c3ccc(NCCCCCCCCOCCc4cccc(N5C[C@H]6C[C@@H]5CN6/C=C/C(=O)c5ccccc5O)c4)cc3C2=O)C(=O)N1 (some centres unmarked) [SMARCA4-31] | approximately 20 hours | More complete degradation | 125 | concurrent loss | loss of the PAX3-FOXO1 fusion; also recorded: concurrent loss | More complete degradation | 62.5 | FOXO1 loss; also recorded: concurrent loss | degraded | remained intact | specific degradation | More complete degradation | remained intact | remained intact | depleted | depleted | sub-micromolar efficacy | sub-micromolar efficacy | alterations to the accessibility landscape |
| O=C1CCC(N2C(=O)c3cccc(NCCCCNC(=O)c4cccc(C#Cc5cc(NC(=O)Nc6ccnc(Cl)c6)ccn5)c4)c3C2=O)C(=O)N1 (racemic) [DL-dS2-4] | approximately 20 hours | – | 250 | concurrent loss | loss of the PAX3-FOXO1 fusion; also recorded: concurrent loss | – | 62.5 | FOXO1 loss; also recorded: concurrent loss | degraded | remained intact | specific degradation | – | remained intact | remained intact | – | – | sub-micromolar efficacy | sub-micromolar efficacy | – |
